Assays:
BACE1 = BACE1 (Homo sapiens (Human), UniProt P56817); assay: Cellular Aβ-lowering assay; assay type: cell-based; details: HEK293 cells expressing human APP695, Aβ40 in supernatant by ELISA
Method: Cellular Aβ-Lowering Assay:
Human HEK293 cells which are stably transfected with a vector expressing a cDNA of the human APP wt gene (APP695) were used to assess the potency of the compounds in a cellular assay. The cells were seeded in 96-well microtiter plates in cell culture medium (Iscove, plus 10% (v/v) fetal bovine serum, glutamine, penicillin/streptomycin) to about 80% confluence and the compounds were added at a 10× concentration in 1/10 volume of medium without FCS containing 8% DMSO (final concentration of DMSO was kept at 0.8% v/v). After 18-20 hrs incubation at 37° C. and 5% CO2 in a humidified incubator the culture supernatant was harvested for the determination of Aβ40 concentrations. 96 well ELISA plates (e.g., Nunc MaxiSorb) were coated with monoclonal antibody which specifically recognize the C-terminal end of Aβ40 (Brockhaus et al., NeuroReport 9, 1481-1486; 1998). After blocking of non-specific binding sites with e.g. 1% BSA and washing, the culture supernatants were added in suitable dilutions together with a horseradish peroxidase-coupled Aβ detection antibody (e.g., antibody 4G8, Senetek, Maryland Heights, Mo.) and incubated for 5 to 7 hrs. Subsequently the wells of the microtiter plate were washed extensively with Tris-buffered saline containing 0.05% Tween 20 and the assay was developed with tetramethylbenzidine/H2O2 in citric acid buffer. After stopping the reaction with one volume 1 N H2SO4 the reaction was measured in an ELISA reader at 450 nm wavelength. The concentrations of Aβ in the culture supernatants were calculated from a standard curve obtained with known amounts of pure Aβ peptide.

BACE2 = BACE2 (Rattus norvegicus (Rat), UniProt Q6IE75); assay: Assay for BACE inhibition by measuring cellular TMEM27 cleavage; assay type: cell-based; details: INS-TMEM27 (INS1e-derived) cells, shed hTMEM27 by ELISA
Text: Assay for BACE Inhibition by Measuring Cellular TMEM27 Cleavage:
The assay uses the principle of inhibition of human TMEM27 cleavage by endogenous cellular BACE2 in the Ins1e rat cell line and shedding from the cell surface into the culture medium, followed by detection in an ELISA assay Inhibition of BACE2 prevents the cleavage and shedding in a dose-dependent manner.
The stable cell line “INS-TMEM27” represents an INS1e-derived cell line with inducible expression (using the TetOn system) of full-length hTMEM27 in a doxycycline-dependent manner. The cells are cultured throughout the experiment in RPMI1640+Glutamax (Invitrogen) Penicillin/Streptomycin, 10% Fetal bovine serum, […], […], 100 micrograms/ml G418 and 100 microgram/ml hygromycin and are grown inadherent culture at 37° C. in a standard CO2 cell culture incubator.
INS-TMEM27 cells are seeded in 96-well plates. After 2 days in culture, BACE2 inhibitor is added in a range of concentrations as required by the assay and after a further two hours, doxycycline is added to a final concentration of 500 ng/ml. The cells are incubated for a further 46 hours and the supernatant harvested for detection of shed TMEM27.
An ELISA assay (using a pair of mouse anti-human-TMEM27 antibodies, raised against the extracellular domain of TMEM27) is used for detection of TMEM27 in the culture medium. An EC50 for BACE2 inhibition is calculated using the ELISA readout for each inhibitor concentration with standard curve-fitting software such as XLFit for the Excel spreadsheet program.

Sequence of BACE1 (P56817 46-501): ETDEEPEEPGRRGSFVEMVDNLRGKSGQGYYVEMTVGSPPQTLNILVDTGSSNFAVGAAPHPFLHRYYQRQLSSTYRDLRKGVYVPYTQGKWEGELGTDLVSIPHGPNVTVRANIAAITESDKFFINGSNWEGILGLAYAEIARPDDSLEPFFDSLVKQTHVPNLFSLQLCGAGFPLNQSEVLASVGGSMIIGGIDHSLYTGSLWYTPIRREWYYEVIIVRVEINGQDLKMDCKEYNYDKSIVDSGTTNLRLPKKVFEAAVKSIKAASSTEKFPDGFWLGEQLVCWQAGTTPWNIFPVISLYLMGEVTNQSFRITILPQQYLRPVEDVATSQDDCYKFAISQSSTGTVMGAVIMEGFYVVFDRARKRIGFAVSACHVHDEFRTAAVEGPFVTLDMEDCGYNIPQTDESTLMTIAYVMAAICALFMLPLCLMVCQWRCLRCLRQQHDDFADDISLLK
Sequence of BACE2 (Q6IE75 63-514): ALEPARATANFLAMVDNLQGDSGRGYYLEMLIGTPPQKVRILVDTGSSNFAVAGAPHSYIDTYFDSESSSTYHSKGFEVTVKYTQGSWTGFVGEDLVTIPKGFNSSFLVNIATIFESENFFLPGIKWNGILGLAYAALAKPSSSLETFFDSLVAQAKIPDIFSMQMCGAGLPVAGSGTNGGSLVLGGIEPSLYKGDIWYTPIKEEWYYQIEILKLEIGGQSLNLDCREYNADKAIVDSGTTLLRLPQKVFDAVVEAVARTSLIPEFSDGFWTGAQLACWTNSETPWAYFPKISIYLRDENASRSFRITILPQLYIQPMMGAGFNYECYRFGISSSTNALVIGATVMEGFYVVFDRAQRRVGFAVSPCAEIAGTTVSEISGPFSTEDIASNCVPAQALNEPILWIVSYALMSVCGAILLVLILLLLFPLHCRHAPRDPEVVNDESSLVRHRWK

Row | IC50 (BACE1) | IC50 (BACE2) | Structure (SMILES)
1 | 62 nM | 181 nM | CC1(C)C(N)=N[C@](C)(c2cc(NC(=O)c3ccc(F)cn3)ccc2F)CCS1(=O)=O [Example 10, 5-Fluoro-pyridine-2-carboxylic acid [3-((S)-3-amino-2,2,5-trimethyl-1,1-dioxo-2,5,6,7-tetrahydro-1H-1λ^6-[1,4]thiazepin-5-yl)-4-fluoro-phenyl]-amide]
2 | 170 nM | 21 nM | CC1SCC[C@@](C)(c2cc(NC(=O)c3ccc(F)cn3)ccc2F)N=C1N (stereo in doubt) [Example 5, 5-Fluoro-pyridine-2-carboxylic acid [3-((S)-3-amino-2,5-dimethyl-2,5,6,7-tetrahydro-[1,4]thiazepin-5-yl)-4-fluoro-phenyl]-amide]
3 | 4 nM | 2 nM | CC1C(N)=N[C@](C)(c2cc(NC(=O)c3ccc(F)cn3)ccc2F)CCS1(=O)=O (stereo in doubt) [Example 7, 5-Fluoro-pyridine-2-carboxylic acid [3-((S)-3-amino-2,5-dimethyl-1,1-dioxo-2,5,6,7-tetrahydro-1H-1λ^6-[1,4]thiazepin-5-yl)-4-fluoro-phenyl]-amide]
4 | 140 nM | 9 nM | CC1SCC[C@@](C)(c2cc(NC(=O)c3ccc(Cl)cn3)ccc2F)N=C1N (stereo in doubt) [Example 6, 5-Chloro-pyridine-2-carboxylic acid [3-((S)-3-amino-2,5-dimethyl-2,5,6,7-tetrahydro-[1,4]thiazepin-5-yl)-4-fluoro-phenyl]-amide]
5 | 300 nM | 858 nM | CC1C(N)=N[C@](C)(c2cc(NC(=O)c3[nH]ncc3Cl)ccc2F)CCS1(=O)=O (stereo in doubt) [Example 9, 4-Chloro-2H-pyrazole-3-carboxylic acid [3-((S)-3-amino-2,5-dimethyl-1,1-dioxo-2,5,6,7-tetrahydro-1H-1λ^6-[1,4]thiazepin-5-yl)-4-fluoro-phenyl]-amide]
6 | 6.3 nM | 167 nM | C[C@@]1(c2cc(NC(=O)c3ccc(Cl)cn3)ccc2F)CCSCC(N)=N1 [Example 1, 5-Chloro-pyridine-2-carboxylic acid [3-((S)-3-amino-5-methyl-2,5,6,7-tetrahydro-[1,4]thiazepin-5-yl)-4-fluoro-phenyl]-amide]
7 | 16 nM | 79 nM | C[C@@]1(c2cc(NC(=O)c3ccc(F)cn3)ccc2F)CCSCC(N)=N1 [Example 2, 5-Fluoro-pyridine-2-carboxylic acid [3-((S)-3-amino-5-methyl-2,5,6,7-tetrahydro-[1,4]thiazepin-5-yl)-4-fluoro-phenyl]-amide]
8 | 78 nM |  | C[C@]1(c2cc(NC(=O)c3ccc(C#N)cn3)ccc2F)N=C(N)CS(=O)(=O)[C@H]2COC[C@@H]21 (relative stereo) [Example 14, 5-Cyano-pyridine-2-carboxylic acid [3-((3aR,8S,8aS)-rel-6-amino-8-methyl-4,4-dioxo-3,3a,4,5,8,8a-hexahydro-1H-2-oxa-4λ^6-thia-7-aza-azulen-8-yl)-4-fluoro-phenyl]-amide]
9 | 20 nM | 4 nM | C[C@@]1(c2cc(NC(=O)c3ccc(F)cn3)ccc2F)CCS(=O)(=O)CC(N)=N1 [Example 4, 5-Fluoro-pyridine-2-carboxylic acid [3-((S)-3-amino-5-methyl-1,1-dioxo-2,5,6,7-tetrahydro-1H-1λ^6-[1,4]thiazepin-5-yl)-4-fluoro-phenyl]amide]
10 | 260 nM |  | N#Cc1ccc(C(=O)Nc2ccc(F)c([C@]3(C(F)F)CCS(=O)(=O)CC(N)=N3)c2)nc1 [Example 13, 5-Cyano-pyridine-2-carboxylic acid [3-((S)-3-amino-5-difluoromethyl-1,1-dioxo-2,5,6,7-tetrahydro-1H-1λ^6-[1,4]thiazepin-5-yl)-4-fluoro-phenyl]-amide]
11 | 2290 nM |  | CC1(C)C(N)=N[C@](C)(c2cc(NC(=O)c3[nH]ncc3Cl)ccc2F)CCS1(=O)=O [Example 11, 4-Chloro-2H-pyrazole-3-carboxylic acid [3-((S)-3-amino-2,2,5-trimethyl-1,1-dioxo-2,5,6,7-tetrahydro-1H-1λ^6-[1,4]thiazepin-5-yl)-4-fluoro-phenyl]-amide]
12 | 53 nM |  | CC1(C)C(N)=N[C@](C)(c2cc(NC(=O)c3ccc(C#N)cn3)ccc2F)CCS1(=O)=O [Example 12, 5-Cyano-pyridine-2-carboxylic acid [3-((S)-3-amino-2,2,5-trimethyl-1,1-dioxo-2,5,6,7-tetrahydro-1H-1λ^6-[1,4]thiazepin-5-yl)-4-fluoro-phenyl]-amide]
13 | 3 nM | 5 nM | C[C@@]1(c2cc(NC(=O)c3ccc(Cl)cn3)ccc2F)CCS(=O)(=O)CC(N)=N1 [Example 3, 5-Chloro-pyridine-2-carboxylic acid [3-((S)-3-amino-5-methyl-1,1-dioxo-2,5,6,7-tetrahydro-1H-1λ^6-[1,4]thiazepin-5-yl)-4-fluoro-phenyl]-amide]
14 | 30 nM | 16 nM | CC1C(N)=N[C@](C)(c2cc(NC(=O)c3ccc(Cl)cn3)ccc2F)CCS1(=O)=O (stereo partly drawn) [Example 8, 5-Chloro-pyridine-2-carboxylic acid [3-((S)-3-amino-2,5-dimethyl-1,1-dioxo-2,5,6,7-tetrahydro-4H-1λ^6-[1,4]thiazepin-5-yl)-4-fluoro-phenyl]-amide]
